The text below walks through data of US7179926B2, “Aryloxyalkylamine NK-1/SSRI inhibitors” (Bristol-Myers Squibb Company, priority 2004, dated 2007).

Assay [1] deals with T1, neurokinin-1 (NK-1) receptor (Homo sapiens, UniProt P25103).
T1 construct: endogenously expresses the neurokinin-1 (NK-1) receptor; endogenous in cells; host or cells: U373 human glioblastoma-astrocytoma cells (membranes)
Description: NK-1 Binding assay ([125I] Substance P competition, U373 cell membranes). To be noted: Bolton Hunter labeled [125I] Substance P, 30 min at 20° C. The method, then: NK-1 Binding assay. U373 cells, a human glioblastoma-astrocytoma cell line that endogenously expresses the neurokinin-1 (NK-1) receptor, were grown in a monolayer culture at 37° C. in 5% CO2 and fed with Minimum Essential Medium (MEM) supplemented with 10% fetal bovine serum. Membranes were prepared as follows: Cells were washed twice with ice-cold phosphate-buffered saline (pH 7.4) and then incubated for 5–10 minutes with ice-cold 10 mM Tris buffer (pH 7.4) containing 5 mM EDTA. Cells were removed from plates, homogenized, and centrifuged at 32,000×g for 20 minutes. The resulting supernatant was discarded, and the pellet resuspended by homogenization in 50 mM Tris buffer (pH 7.4) containing 1 mM EDTA and centrifuged at 32,000×g for 20 minutes. The resulting supernatant was discarded, and the pellet resuspended by homogenization in NK-1 binding assay buffer (50 mM Tris-HCL (pH 7.4), 3 mM MnCl2, 200 μg/ml BSA, 5 μg/ml chymostatin, 40 μg/ml bacitracin and 4 μg/ml leupeptin).
On the day of an experiment the membrane preparation was thawed, homogenized and diluted with NK-1 binding assay buffer to the appropriate concentration. Competition binding assays were performed in 96 well plate format by incubating membranes (5–10 μg/well) with Bolton Hunter labeled [^125I] Substance P, at a concentration of […], and concentrations of drugs ranging from 10000 to 0.01 nM. Samples were incubated for 30 min at 20° C. then filtered through GF/B glass fiber filters (pretreated with 1% polyethyleneimine and 0.3% Triton X-100) using a Brandel cell harvester. The filters were then washed with 10 ml ice cold 50 mM Tris-HCL (pH 7.4) containing 3 mM MgCl2. Non-specific was defined in the presence of 2 μM L-733,060 (a non-peptide NK-1 antagonist). The amount of radioligand bound in the presence and absence of competitor was analyzed by plotting (−)log drug concentration versus the amount of radioligand specifically bound. The midpoint of the displacement curve (IC50, nM), signifies the potency. Ki values can be calculated using the method of Cheng and Prusoff (Cheng and Prusoff, Biochemical Pharmacology, Vol 22, pp. 3099–3108, Pergamon Press (1973)).

Assay [2] addresses T2, human serotonin transporters (Homo sapiens, UniProt P31645).
T2 construct: expressed in transfected cells
As to the kind of experiment: Serotonin transporter binding assay ([3H]-citalopram competition, HEK-hSERT cell membranes). To be noted: 1 nM [3H]-citalopram, 1 hr at 25° C., read-out: SERT IC50. The method, then:
Serotonin transporter binding assay. HEK-293 cells that stably express human serotonin transporters (HEK-hSERT cells) were grown at 37° C. in 5% CO2 as a monolayer in medium consisting of EMEM supplemented with 10% fetal bovine serum and G418 sulfate (500 μg/ml). To prepare membranes for radioligand binding experiments, cells were rinsed twice with phosphate-buffered saline (138 mM NaCl, 4.1 mM KCl, 5.1 mM Na2PO4, 1.5 mM KH2PO4, 11.1 mM glucose, pH 7.4). Cells were transferred from plates to polypropylene tubes (16×100 mm), centrifuged at 1,200×g for 5 min and were frozen at −80° C. until assay. Following centrifugation, pellets were resuspended by homogenization in buffer consisting of 50 mM Tris (pH 7.7 at 25° C.), 120 mM NaCl and 5 mM KCl and then centrifuged at 32,000×g for 10 min. Following centrifugation, supernatants were discarded and pellets were resuspended in buffer consisting of 50 mM Tris (pH 7.4 at 25° C.), 150 mM NaCl and 5 mM KCl. Membrane homogenates (200 μl/plate) were incubated with 1 nM [^3H]-citalopram (specific activity=85 Ci/mmol) and increasing concentrations of test compounds for 1 hr at 25° C. in a total volume of 250 μl. The assay buffer consisted of 50 mM Tris (pH 7.4 at 25° C.), 120 mM NaCl and 5 mM KCl (pH 7.4 with conc. HCl). Plates were incubated for 1 hr at 25° C., then filtered through 0.5% PEI treated Whatman GF/B filters using a Brandel cell harvester. Filters were washed three times with 3 ml of ice-cold tris wash buffer. Non-specific binding was defined with 10 μM fluoxetine. Amount of radioligand bound in the presence and absence of competitor was analyzed by plotting (−)log drug concentration versus the amount of radioligand specifically bound. The midpoint of the displacement curve (IC50, nM), signifies the potency. Ki values can be calculated using the method of Cheng and Prusoff (Cheng and Prusoff, Biochemical Pharmacology, Vol 22, pp. 3099–3108, Pergamon Press (1973)).

Usually IC50 stands for the point on the concentration scale where inhibition reaches its midpoint.

T1 sequence (P25103 whole entry): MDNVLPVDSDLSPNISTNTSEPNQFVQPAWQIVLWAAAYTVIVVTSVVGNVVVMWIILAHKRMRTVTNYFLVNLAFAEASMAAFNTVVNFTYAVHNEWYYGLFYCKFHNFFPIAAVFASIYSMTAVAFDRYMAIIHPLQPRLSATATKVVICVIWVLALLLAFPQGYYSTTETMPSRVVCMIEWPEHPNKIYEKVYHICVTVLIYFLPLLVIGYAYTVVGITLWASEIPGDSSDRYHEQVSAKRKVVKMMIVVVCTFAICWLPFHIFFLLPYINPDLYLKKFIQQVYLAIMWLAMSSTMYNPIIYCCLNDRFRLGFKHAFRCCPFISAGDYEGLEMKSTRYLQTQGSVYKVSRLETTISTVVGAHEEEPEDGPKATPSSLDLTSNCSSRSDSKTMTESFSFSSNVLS
T2 sequence (P31645 whole entry): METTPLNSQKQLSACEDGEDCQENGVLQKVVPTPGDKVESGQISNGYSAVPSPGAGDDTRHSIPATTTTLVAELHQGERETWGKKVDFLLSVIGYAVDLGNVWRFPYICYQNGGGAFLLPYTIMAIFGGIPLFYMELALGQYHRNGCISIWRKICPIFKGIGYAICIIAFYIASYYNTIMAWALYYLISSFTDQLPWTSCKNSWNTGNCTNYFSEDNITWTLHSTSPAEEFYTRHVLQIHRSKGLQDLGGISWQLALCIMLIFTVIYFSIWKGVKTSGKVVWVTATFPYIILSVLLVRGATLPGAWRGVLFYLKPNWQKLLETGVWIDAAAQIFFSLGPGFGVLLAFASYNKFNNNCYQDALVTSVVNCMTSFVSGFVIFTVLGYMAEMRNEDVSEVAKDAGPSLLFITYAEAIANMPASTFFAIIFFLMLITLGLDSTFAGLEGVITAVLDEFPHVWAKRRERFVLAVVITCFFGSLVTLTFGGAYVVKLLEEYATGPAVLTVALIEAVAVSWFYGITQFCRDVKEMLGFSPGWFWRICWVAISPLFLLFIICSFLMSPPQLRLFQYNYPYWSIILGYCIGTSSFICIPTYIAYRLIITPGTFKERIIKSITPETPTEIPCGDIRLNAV

As for `NCCC(O)(COCc1ccc(F)cc1)c1ccccc1` (stereo not shown) [Example 59, 1-(4-fluorobenzyloxy)-4-amino-2-phenylbutan-2-ol], the IC50 in assay [1] was over 0.3 µM; in assay [2] it was 0.1 to 0.3 µM.
Regarding `COc1ccc(C(O)(CCN)COCc2cc(C(F)(F)F)cc(C(F)(F)F)c2)cc1` (stereo not shown) [Example 20, 1-(3,5-bis(trifluoromethyl)benzyloxy)-4-amino-2-(4-methoxyphenyl)butan-2-ol], the IC50 in assay [1] fell in the range of 0.1 to 0.3 µM; in assay [2], 0.001 to 0.1 µM.
For the compound `Cc1cccc(C(O)(CCN)COCc2cc(C(F)(F)F)cc(C(F)(F)F)c2)c1C` (stereo not shown) [Example 26, 1-(3,5-bis(trifluoromethyl)benzyloxy)-4-amino-2-(2,3-dimethylphenyl)butan-2-ol], the 50% inhibitory concentration (IC50) in assay [1] and in assay [2] was 0.001 to 0.1 µM in each case.
As to `COc1ccc(OC)c(C(O)(CCN)COCc2cc(C(F)(F)F)cc(C(F)(F)F)c2)c1` (stereo not shown) [Example 27, 1-(3,5-bis(trifluoromethyl)benzyloxy)-4-amino-2-(2,5-dimethoxyphenyl)butan-2-ol], the IC50 in assay [1] was 0.1 to 0.3 µM; in assay [2], 0.001 to 0.1 µM.
For `CNCC(C)(COCc1cc(C(F)(F)F)cc(C(F)(F)F)c1)c1ccccc1` (stereo not shown) [Example 78, 1-(3,5-bis(trifluoromethyl)benzyloxy)-3-methylamino-2-methyl-2-phenylpropane], in that order: 0.1 to 0.3 µM and 0.1 to 0.3 µM.
Taken in the same sequence, the figures for `NCCC(O)(COCc1ccccc1C(F)(F)F)c1ccccc1` (stereo not shown) [Example 54, 1-(2-(trifluoromethyl)benzyloxy)-4-amino-2-phenylbutan-2-ol] were over 0.3 µM and 0.001 to 0.1 µM.
`NCCC(O)(COCc1cccc(C(F)(F)F)c1)c1ccccc1` (stereo not shown) [Example 55, 1-(3-(trifluoromethyl)benzyloxy)-4-amino-2-phenylbutan-2-ol]: the half-inhibitory concentration (IC50) in assay [1] and in assay [2] was 0.1 to 0.3 µM throughout.
With `NCCC(O)(COCc1cc(C(F)(F)F)cc(C(F)(F)F)c1)c1cc(F)cc(Cl)c1` (stereo not shown) [Example 24, 1-(3,5-bis(trifluoromethyl)benzyloxy)-4-amino-2-(3-chloro-5-fluorophenyl)butan-2-ol], the results for the IC50 in assay [1] and in assay [2] were 0.001 to 0.1 µM and 0.1 to 0.3 µM, respectively.
Taken in the same sequence, the figures for `NCCC(O)(COCc1ccccc1)c1ccccc1` (stereo not shown) [Example 47, 4-amino-1-(benzyloxy)-2-phenylbutan-2-ol] were over 0.3 µM and over 0.3 µM.
For `CNCCC(COCc1cc(C(F)(F)F)cc(C(F)(F)F)c1)c1ccccc1` (stereo not shown) [Example 72, 1-(3,5-bis(trifluoromethyl)benzyloxy)-4-methylamino-2-phenylbutane], in that order: 0.001 to 0.1 µM and 0.001 to 0.1 µM.
Turning to `COc1cccc(COCC(O)(CCN)c2ccccc2)c1` (stereo not shown) [Example 63, 1-(3-methoxybenzyloxy)-4-amino-2-phenylbutan-2-ol], the IC50 in assay [1] was over 0.3 µM; in assay [2], 0.001 to 0.1 µM.
For `NCCC(O)(COCc1cccc(Br)c1)c1ccccc1` (stereo not shown) [Example 48, 1-(3-bromobenzyloxy)-4-amino-2-phenylbutan-2-ol], in that order: over 0.3 µM and 0.001 to 0.1 µM.
Taken in the same sequence, the figures for `CN(C)CCC(COCc1cc(C(F)(F)F)cc(C(F)(F)F)c1)c1ccccc1` (stereo not shown) [Example 73, 1-(3,5-bis(trifluoromethyl)benzyloxy)-4-dimethylamino-2-phenylbutane] were 0.001 to 0.1 µM and 0.001 to 0.1 µM.
Taken in the same sequence, the figures for `NCCC(O)(COCc1cc(C(F)(F)F)cc(C(F)(F)F)c1)c1cccc2ccccc12` (stereo not shown) [Example 34, 1-(3,5-bis(trifluoromethyl)benzyloxy)-4-amino-2-(naphthalen-1-yl)butan-2-ol] were 0.001 to 0.1 µM and 0.001 to 0.1 µM.
With `Cc1ccc(F)cc1C(O)(CCN)COCc1cc(C(F)(F)F)cc(C(F)(F)F)c1` (stereo not shown) [Example 29, 1-(3,5-bis(trifluoromethyl)benzyloxy)-4-amino-2-(5-fluoro-2-methylphenyl)butan-2-ol], the concentration for half-maximal inhibition (IC50) in assay [1] and in assay [2] was 0.001 to 0.1 µM throughout.
Regarding `NCCC(O)(COCc1ccc(OC(F)(F)F)cc1)c1ccccc1` (stereo not shown) [Example 49, 1-(4-(trifluoromethoxy)benzyloxy)-4-amino-2-phenylbutan-2-ol], the IC50 in assay [1] and in assay [2] was over 0.3 µM in each case.
With `NCCC(O)(COCc1ccccc1Br)c1ccccc1` (stereo not shown) [Example 52, 1-(2-bromobenzyloxy)-4-amino-2-phenylbutan-2-ol], the values for the IC50 in assay [1] and in assay [2] were over 0.3 µM and 0.001 to 0.1 µM, respectively.
For `COc1ccc(C(O)(CCN)COCc2cc(C(F)(F)F)cc(C(F)(F)F)c2)c(OC)c1` (stereo not shown) [Example 46, 1-(3,5-bis(trifluoromethyl)benzyloxy)-4-amino-2-(2,4-dimethoxyphenyl)butan-2-ol], in that order: over 0.3 µM and 0.001 to 0.1 µM.
For `COc1ccc(C(O)(CCN)COCc2cc(C(F)(F)F)cc(C(F)(F)F)c2)cc1F` (stereo not shown) [Example 23, 1-(3,5-bis(trifluoromethyl)benzyloxy)-4-amino-2-(3-fluoro-4-methoxyphenyl)butan-2-ol], in that order: 0.001 to 0.1 µM and 0.001 to 0.1 µM.
`CN(C)CCC(C)(COCc1cc(C(F)(F)F)cc(C(F)(F)F)c1)c1ccccc1` (stereo not shown) [Example 76, 1-(3,5-bis(trifluoromethyl)benzyloxy)-4-dimethylamino-2-methyl-2-phenylbutane]: the IC50 in assay [1] was 0.1 to 0.3 µM; in assay [2], 0.001 to 0.1 µM.
For `NCCC(O)(COCc1cccc(F)c1)c1ccccc1` (stereo not shown) [Example 58, 1-(3-fluorobenzyloxy)-4-amino-2-phenylbutan-2-ol], in that order: over 0.3 µM and 0.1 to 0.3 µM.
For `CN(C)CC(C)(COCc1cc(C(F)(F)F)cc(C(F)(F)F)c1)c1ccccc1` (stereo not shown) [Example 79, 1-(3,5-bis(trifluoromethyl)benzyloxy)-3-dimethylamino-2-methyl-2-phenylpropane], in that order: 0.001 to 0.1 µM and 0.001 to 0.1 µM.
On to `Cc1ccc(C(O)(CCN)COCc2cc(C(F)(F)F)cc(C(F)(F)F)c2)cc1F` (stereo not shown) [Example 33, 1-(3,5-bis(trifluoromethyl)benzyloxy)-4-amino-2-(3-fluoro-4-methylphenyl)butan-2-ol], for which the IC50 in assay [1] and in assay [2] was 0.001 to 0.1 µM in each case.
For `NCCC(O)(COCc1cc(C(F)(F)F)cc(C(F)(F)F)c1)c1ccc(Cl)cc1` (stereo not shown) [Example 42, 1-(3,5-bis(trifluoromethyl)benzyloxy)-4-amino-2-(4-chlorophenyl)butan-2-ol], the 50% inhibitory concentration (IC50) in assay [1] and in assay [2] was 0.001 to 0.1 µM throughout.
In the case of `Cc1cc(C(O)(CCN)COCc2cc(C(F)(F)F)cc(C(F)(F)F)c2)ccc1F` (stereo not shown) [Example 13, 1-(3,5-bis(trifluoromethyl)benzyloxy)-4-amino-2-(4-fluoro-3-methylphenyl)butan-2-ol], the IC50 in assay [1] and in assay [2] was 0.001 to 0.1 µM throughout.
For the compound `NCCC(O)(COCc1ccccc1F)c1ccccc1` (stereo not shown) [Example 57, 1-(2-fluorobenzyloxy)-4-amino-2-phenylbutan-2-ol], the IC50 in assay [1] and in assay [2] was over 0.3 µM in each case.
